Assay results as given in patent US20210355107A1, “MULTI-SUBSTITUTED PYRIDONE DERIVATIVES AND MEDICAL USE THEREOF” (Beijing Yuezhikangtai Biomedicines Co., Ltd., priority 2018, published 2021).

Tests used:
kinase Axl = target: T1, kinase Axl (Homo sapiens, UniProt P30530); assay: Mobility shift assay, inhibitory activity against kinase Axl; format: biochemical; settings: ATP at Km (81 μM), average of two independent experiments
T1 construct: purchased Carna 08-107
T1 sequence (P30530 473-894 limits assumed): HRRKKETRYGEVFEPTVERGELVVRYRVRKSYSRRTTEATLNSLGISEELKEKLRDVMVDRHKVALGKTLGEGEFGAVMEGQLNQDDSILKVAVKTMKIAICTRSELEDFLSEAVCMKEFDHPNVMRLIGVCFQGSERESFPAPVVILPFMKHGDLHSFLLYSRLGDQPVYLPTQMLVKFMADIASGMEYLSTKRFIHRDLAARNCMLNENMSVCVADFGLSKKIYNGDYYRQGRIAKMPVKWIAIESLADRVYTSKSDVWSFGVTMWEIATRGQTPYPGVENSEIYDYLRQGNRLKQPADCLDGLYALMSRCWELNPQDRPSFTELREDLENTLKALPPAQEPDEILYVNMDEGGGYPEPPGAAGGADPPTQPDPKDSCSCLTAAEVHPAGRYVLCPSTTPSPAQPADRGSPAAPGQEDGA

Ba/F3 Axl cells = target: T2, Ba/F3 Axl cells (Homo sapiens, UniProt P30530); assay: Ba/F3 Axl cell proliferation, CellTiter-Glo Luminescent Cell Viability Assay; format: cell-based; settings: 100 ng/mL rhGas6, 72 h incubation, read-out: IC50 (nM) against Ba/F3 Axl cells
T2 sequence (P30530 1-894): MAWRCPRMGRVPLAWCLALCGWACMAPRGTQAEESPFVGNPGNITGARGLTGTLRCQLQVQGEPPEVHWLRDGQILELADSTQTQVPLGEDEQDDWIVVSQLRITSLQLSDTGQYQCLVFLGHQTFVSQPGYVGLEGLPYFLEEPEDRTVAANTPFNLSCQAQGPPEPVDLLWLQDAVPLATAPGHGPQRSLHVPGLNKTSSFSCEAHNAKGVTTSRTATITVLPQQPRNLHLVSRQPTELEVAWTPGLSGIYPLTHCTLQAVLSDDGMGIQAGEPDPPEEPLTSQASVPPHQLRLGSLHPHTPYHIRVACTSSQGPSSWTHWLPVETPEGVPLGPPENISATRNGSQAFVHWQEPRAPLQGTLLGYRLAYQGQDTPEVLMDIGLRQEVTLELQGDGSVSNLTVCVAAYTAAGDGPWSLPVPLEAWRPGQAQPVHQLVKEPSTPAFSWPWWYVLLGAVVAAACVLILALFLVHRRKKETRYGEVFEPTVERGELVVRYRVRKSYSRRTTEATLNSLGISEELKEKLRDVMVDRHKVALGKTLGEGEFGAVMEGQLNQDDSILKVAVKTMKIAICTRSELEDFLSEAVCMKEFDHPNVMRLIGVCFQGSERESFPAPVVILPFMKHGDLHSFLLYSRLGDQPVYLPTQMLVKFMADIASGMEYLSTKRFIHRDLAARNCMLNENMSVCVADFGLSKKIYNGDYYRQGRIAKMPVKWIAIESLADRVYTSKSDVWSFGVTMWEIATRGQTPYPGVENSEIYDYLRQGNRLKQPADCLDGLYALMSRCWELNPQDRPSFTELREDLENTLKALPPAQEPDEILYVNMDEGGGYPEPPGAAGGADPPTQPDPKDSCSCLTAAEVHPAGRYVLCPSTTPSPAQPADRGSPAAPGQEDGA
Experimental: Test method: the inhibitory activity of the compounds against Ba/F3 Axl cell proliferation was evaluated using CellTiter-Glo® Luminescent Cell Viability Assay Kit (Promega).
Test procedures: when thawing Ba/F3 Axl cells, the cell cryopreservation tube was shaken rapidly in a water bath at 37° C. to thaw the cells in 1 min. The cell suspension after thawing was mixed with RPMI1640 culture medium containing 10% FBS and centrifuged for 5 min at 1000 rpm, and the supernatant was discarded. The cell pellet was suspended in 5 mL of complete culture medium. […] Cell passage was performed at a cell density of 2×10^6 viable cells/mL. When the cells were passaged, the original cell suspension was directly made uniform by pipetting. 1/10 (namely 0.5 mL) of the cell suspension was kept, added with 4.5 mL of new complete culture medium and then made uniform by pipetting. The cell culture flask was then placed in a cell incubator for further culturing. Cell plating was performed when the cell confluence reached 2×10^6 viable cells/mL again. With reference to the method for cell passage, 1/10 (namely 0.5 mL) of the cell suspension was kept for further culturing when the cells were plated, and the remaining cell suspension was placed in a 15 mL centrifuge tube. The supernatant was discarded after centrifugation, and 5 mL of complete culture medium was used to resuspend the cells. […] A control group that contains no cell or compound but only complete culture medium and a control group that contains no compound but cells were set. The cell plates were incubated overnight in a cell incubator. […] The cell plates were then incubated in the cell incubator for 72 h. […] The cell plate was left to stand at room temperature for 20 min to stabilize luminescence signals, and the luminescence value of each well was scanned by a Spectramax M3 multi-functional microplate reader (Molecular Devices) at full wavelength.
Test samples: example compounds of the present invention and bemcentinib (positive control compound).
Data analysis: cell viability was calculated for compounds at various concentrations using the following formula:
Cell viability(%)=(Lumtest compound−Lumculture solution control)/(Lumcell control−Lumculture solution control)×100%,
where Lum refers to the luminescence value of each well of the test compound plate read by the multi-functional microplate reader.
The data were analyzed using GraphPad Prism 7.0 software, fitted with nonlinear S-curve regression to give dose-response curves, and IC50 values were calculated therefrom.

Compound | IC50 (kinase Axl) | GI50 (Ba/F3 Axl cells)
CCn1cc(-c2cnc(N)c(-c3ccc(NC(=O)c4cn(C5CC5)c(C#N)c(-c5ccc(F)cc5)c4=O)cc3F)c2)cn1 [Example 10, N-(4-(2-amino-5-(1-ethyl-1H-pyrazol-4-yl)pyridin-3-yl)-3-fluorophenyl)-6-cyano-5-(4-fluorophenyl)-1-cyclopropyl-4-oxo-1,4-dihydropyridine-3-carboxamide] | 2.8 nM | –
COc1cc2nccc(Oc3ccc(NC(=O)c4cn(C(C)C)c(C#N)c(-c5ccc(F)cc5)c4=O)cc3F)c2cc1OC [Example 24, 6-cyano-N-(4-((6,7-dimethoxyquinolin-4-yl)oxy)-3-fluoro-phenyl)-5-(4-fluorophenyl)-1-isopropyl-4-oxo-1,4-dihydropyridine-3-carboxamide] | – | 0.36 nM
CCn1cc(-c2cnc(N)c(-c3cc(F)c(NC(=O)c4cn(C(C)C)c(C#N)c(-c5ccc(F)cc5)c4=O)cc3F)c2)cn1 [Example 33, N-(4-(2-amino-5-(1-ethyl-1H-pyrazol-4-yl)pyridin-3-yl)-2,5-difluorophenyl)-6-cyano-5-(4-fluorophenyl)-1-isopropyl-4-oxo-1,4-dihydropyridine-3-carboxamide] | – | 0.23 nM
[2H]C([2H])([2H])n1cc(-c2cnc(N)c(-c3cc(F)c(NC(=O)c4cn(C(C)C)c(C#N)c(-c5ccc(F)cc5)c4=O)cc3F)c2)cn1 [Example 34, N-(4-(2-amino-5-(1-methyl-d3-1H-pyrazol-4-yl)pyridin-3-yl)-2,5-difluorophenyl)-6-cyano-5-(4-fluorophenyl)-1-isopropyl-4-oxo-1,4-dihydropyridine-3-carboxamide] | – | 0.28 nM

Now from value to compound, other results behind:

IC50 (kinase Axl) | Compound | GI50 (Ba/F3 Axl cells)
0.46 nM | CC(C)n1cc(C(=O)Nc2ccc(-c3cc(-c4cnn(C5CCNCC5)c4)cnc3N)c(F)c2)c(=O)c(-c2ccc(F)cc2)c1C#N [Example 2, N-(4-(2-amino-5-(1-(piperidin-4-yl)-1H-pyrazol-4-yl)pyridin-3-yl)-3-fluorophenyl)-6-cyano-5-(4-fluorophenyl)-1-isopropyl-4-oxo-1,4-dihydropyridine-3-carboxamide] | –
3.2 nM | COc1cc2nccc(Oc3ccc(NC(=O)c4cn(C)c(C#N)c(-c5ccc(F)cc5)c4=O)cc3F)c2cc1OC [Example 21, 6-cyano-N-(4-((6,7-dimethoxyquinolin-4-yl)oxy)-3-fluoro-phenyl)-5-(4-fluorophenyl)-1-methyl-4-oxo-1,4-dihydropyridine-3-carboxamide] | 0.29 nM
0.28 nM | CC(C)n1cc(C(=O)Nc2ccc(-c3cc(-c4cnn(C)c4)cnc3N)c(F)c2)c(=O)c(-c2ccc(F)cc2)c1C#N [Example 4, N-(4-(2-amino-5-(1-methyl-1H-pyrazol-4-yl)pyridin-3-yl)-3-fluorophenyl)-6-cyano-5-(4-fluorophenyl)-1-isopropyl-4-oxo-1,4-dihydropyridine-3-carboxamide] | 0.57 nM
2 nM | CC(C)n1cc(C(=O)Nc2cc(F)c(-c3cc(-c4cnn(C)c4)cnc3N)cc2F)c(=O)c(-c2ccc(F)cc2)c1C#N [Example 6, N-(4-(2-amino-5-(1-methyl-1H-pyrazol-4-yl)pyridin-3-yl)-2,5-difluorophenyl)-6-cyano-5-(4-fluorophenyl)-1-isopropyl-4-oxo-1,4-dihydropyridine-3-carboxamide] | 0.49 nM
2.7 nM | CCn1cc(-c2cnc(N)c(-c3ccc(NC(=O)c4cn(C(C)C)c(C#N)c(-c5ccc(F)cc5)c4=O)cc3F)c2)cn1 [Example 3, N-(4-(2-amino-5-(1-ethyl-1H-pyrazol-4-yl)pyridin-3-yl)-3-fluoro-phenyl)-6-cyano-5-(4-fluorophenyl)-1-isopropyl-4-oxo-1,4-dihydropyridine-3-carboxamide] | 0.29 nM
